Measurements published in PubChem BioAssay (NCI).
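Assay format: 96-well plates, 48-hour exposure. TGI: concentration producing complete growth inhibition.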

Experiments:
Assay in all cases: inhibition of tumour cell growth, NCI panel, 48 h
A498 renal = system: A498 renal
MCF7 breast = system: MCF7 breast
CAKI-1 renal = system: CAKI-1 renal
HL-60(TB) leukemia = system: HL-60(TB) leukemia
SR leukemia = system: SR leukemia
SK-MEL-5 melanoma = system: SK-MEL-5 melanoma
SN12C renal = system: SN12C renal
K-562 leukemia = system: K-562 leukemia
OVCAR-5 ovarian = system: OVCAR-5 ovarian
TK-10 renal = system: TK-10 renal
UO-31 renal = system: UO-31 renal
SK-OV-3 ovarian = system: SK-OV-3 ovarian
PC-3 prostate = system: PC-3 prostate
RXF 393 renal = system: RXF 393 renal
HS 578T breast = system: HS 578T breast
OVCAR-8 ovarian = system: OVCAR-8 ovarian
HCC-2998 colon = system: HCC-2998 colon
M14 melanoma = system: M14 melanoma
MDA-MB-435 = system: MDA-MB-435
DU-145 prostate = system: DU-145 prostate
SK-MEL-28 melanoma = system: SK-MEL-28 melanoma
CCRF-CEM leukemia = system: CCRF-CEM leukemia
NCI/ADR-RES ovarian = system: NCI/ADR-RES ovarian
LOX IMVI melanoma = system: LOX IMVI melanoma
RPMI-8226 leukemia = system: RPMI-8226 leukemia
SNB-75 CNS = system: SNB-75 CNS
NCI-H23 lung = system: NCI-H23 lung
NCI-H460 lung = system: NCI-H460 lung
MDA-N = system: MDA-N
T-47D breast = system: T-47D breast
UACC-62 melanoma = system: UACC-62 melanoma
SW-620 colon = system: SW-620 colon
OVCAR-3 ovarian = system: OVCAR-3 ovarian
COLO 205 colon = system: COLO 205 colon
NCI-H226 lung = system: NCI-H226 lung
SF-539 CNS = system: SF-539 CNS
OVCAR-4 ovarian = system: OVCAR-4 ovarian
SF-268 CNS = system: SF-268 CNS
HCT-15 colon = system: HCT-15 colon
SK-MEL-2 melanoma = system: SK-MEL-2 melanoma
UACC-257 melanoma = system: UACC-257 melanoma
NCI-H522 lung = system: NCI-H522 lung
HT29 colon = system: HT29 colon
786-0 renal = system: 786-0 renal
U251 CNS = system: U251 CNS
MOLT-4 leukemia = system: MOLT-4 leukemia
EKVX NSCLC = system: EKVX NSCLC
SNB-19 CNS = system: SNB-19 CNS
IGROV1 ovarian = system: IGROV1 ovarian
MDA-MB-231 breast = system: MDA-MB-231 breast
KM12 colon = system: KM12 colon
ACHN renal = system: ACHN renal
BT-549 breast = system: BT-549 breast
SF-295 CNS = system: SF-295 CNS
HCT-116 colon = system: HCT-116 colon
A549 NSCLC = system: A549 NSCLC

Measured: TGI

CC(C)c1cc(Cl)nc(Cl)n1
> 100 µM: A498 renal | MCF7 breast | CAKI-1 renal | HL-60(TB) leukemia | SR leukemia | SK-MEL-5 melanoma | SN12C renal | K-562 leukemia | OVCAR-5 ovarian | TK-10 renal | UO-31 renal | SK-OV-3 ovarian | PC-3 prostate | RXF 393 renal | HS 578T breast | OVCAR-8 ovarian | HCC-2998 colon | M14 melanoma | MDA-MB-435 | DU-145 prostate | SK-MEL-28 melanoma | CCRF-CEM leukemia | NCI/ADR-RES ovarian | LOX IMVI melanoma | RPMI-8226 leukemia | SNB-75 CNS | NCI-H23 lung | NCI-H460 lung | MDA-N | T-47D breast | UACC-62 melanoma | SW-620 colon | OVCAR-3 ovarian | COLO 205 colon | NCI-H226 lung | SF-539 CNS | OVCAR-4 ovarian | SF-268 CNS | HCT-15 colon | SK-MEL-2 melanoma | UACC-257 melanoma | NCI-H522 lung | HT29 colon | 786-0 renal | U251 CNS | MOLT-4 leukemia | EKVX NSCLC | SNB-19 CNS | IGROV1 ovarian | MDA-MB-231 breast | KM12 colon | ACHN renal | BT-549 breast | SF-295 CNS | HCT-116 colon | A549 NSCLC
